The text below walks through data of ChEMBL document CHEMBL1142317, “In vitro antitumor activity of the water soluble copper(I) complexes bearing the tris(hydroxymethyl)phosphine ligand” (J Med Chem, 2008).

pIC50: −log10 of the molar value.

What all share (type): functional, cell-based
The subject of experiment [1] is LoVo. Description: Cytotoxicity against human multidrug resistant LoVo cells after 48 hrs by MTT assay. (In general: Formazan colour is commonly taken as a measure of viable cells.)
The test system of experiment [2] is LoVo. The experiment can be described thus: Cytotoxicity against human LoVo cells after 48 hrs by MTT assay.
The next experiment has as its system HL-60. Description: Cytotoxicity against human HL60 cells after 48 hrs by MTT assay. The conditions noted are these: HL-60, 48 h.
The next experiment concerns Daudi. The experiment can be described thus: Cytotoxicity against human Daudi cells after 48 hrs by MTT assay.
The subject of another experiment is HeLa. Description: Cytotoxicity against human HeLa cells after 48 hrs by MTT assay.
For the next experiment, the system named is A549. The experiment can be described thus: Cytotoxicity against human A549 cells after 48 hrs by MTT assay. The conditions noted are these: A549, 48 h.
Another experiment relates to A-375. Description: Cytotoxicity against human A375 cells after 48 hrs by MTT assay. The conditions noted are these: A-375, 48 h.
For the next experiment, the system named is MCF7. Description: Cytotoxicity against human MCF7 cells after 48 hrs by MTT assay. The conditions noted are these: MCF7, 48 h.
The subject of the next experiment is HCT-15. Description: Cytotoxicity against human HCT15 cells after 48 hrs by MTT assay. The conditions noted are these: HCT-15, 48 h.
The next experiment relates to HepG2. Description: Cytotoxicity against human HepG2 cells after 48 hrs by MTT assay. The conditions noted are these: HepG2, 48 h.
Another experiment relates to Caco-2. Description: Cytotoxicity against human CaCo2 cells after 48 hrs by MTT assay. The conditions noted are these: Caco-2, 48 h.

Consider `COc1cccc2c1C(=O)c1c(O)c3c(c(O)c1C2=O)C[C@@](O)(C(=O)CO)C[C@@H]3O[C@H]1C[C@H](N)[C@H](O)[C@H](C)O1` [DOXORUBICIN], for which the values for the pIC50 in the experiment on LoVo [1] and with LoVo [2] were 4.35 and 5.84, respectively.
As to `OCP(CO)CO` [TRIS(HYDROXYMETHYL)PHOSPHINE], the pIC50 with HL-60 was 4.16; with Daudi it was less than 4.00; in the experiment with HeLa it was less than 4.00; in the experiment with A549 it was 4.14; with A-375 it was 4.05; in the experiment on MCF7 it was 4.19. Moreover, the pIC50 is less than 4.00 with HCT-15, 4.01 with HepG2 and less than 4.00 in the experiment on Caco-2.
As for `OCP(CO)CCP(CO)CO`, the pIC50 was 4.08 with HL-60; less than 4.00 with Daudi; less than 4.00 in the experiment with HeLa; less than 4.00 with A549; 4.14 in the experiment on A-375; less than 4.00 in the experiment with MCF7. For the same molecule, the results for the pIC50 with HCT-15, in the experiment with HepG2 and in the experiment with Caco-2 were 4.04, 4.14 and 4.08, respectively.

As usually defined, the pIC50 is −log10 of the IC50, conventionally taken in molar units.
